Here are results for 27 molecules from patent publication US10266549B2, “ULK1 inhibitors and methods using same” (SALK INSTITUTE FOR BIOLOGICAL STUDIES, priority 2014, dated 2019).

The target of the assay is ULK1 (Homo sapiens (Human), UniProt O75385). Description: ULK1 inhibition assay (Table 1). It counts as biochemical. As to conditions: * = tested as a mixture of regioisomers.

The term IC50 denotes the concentration at which inhibition is half-maximal.

Sequence of ULK1 (O75385 whole entry, species assumed): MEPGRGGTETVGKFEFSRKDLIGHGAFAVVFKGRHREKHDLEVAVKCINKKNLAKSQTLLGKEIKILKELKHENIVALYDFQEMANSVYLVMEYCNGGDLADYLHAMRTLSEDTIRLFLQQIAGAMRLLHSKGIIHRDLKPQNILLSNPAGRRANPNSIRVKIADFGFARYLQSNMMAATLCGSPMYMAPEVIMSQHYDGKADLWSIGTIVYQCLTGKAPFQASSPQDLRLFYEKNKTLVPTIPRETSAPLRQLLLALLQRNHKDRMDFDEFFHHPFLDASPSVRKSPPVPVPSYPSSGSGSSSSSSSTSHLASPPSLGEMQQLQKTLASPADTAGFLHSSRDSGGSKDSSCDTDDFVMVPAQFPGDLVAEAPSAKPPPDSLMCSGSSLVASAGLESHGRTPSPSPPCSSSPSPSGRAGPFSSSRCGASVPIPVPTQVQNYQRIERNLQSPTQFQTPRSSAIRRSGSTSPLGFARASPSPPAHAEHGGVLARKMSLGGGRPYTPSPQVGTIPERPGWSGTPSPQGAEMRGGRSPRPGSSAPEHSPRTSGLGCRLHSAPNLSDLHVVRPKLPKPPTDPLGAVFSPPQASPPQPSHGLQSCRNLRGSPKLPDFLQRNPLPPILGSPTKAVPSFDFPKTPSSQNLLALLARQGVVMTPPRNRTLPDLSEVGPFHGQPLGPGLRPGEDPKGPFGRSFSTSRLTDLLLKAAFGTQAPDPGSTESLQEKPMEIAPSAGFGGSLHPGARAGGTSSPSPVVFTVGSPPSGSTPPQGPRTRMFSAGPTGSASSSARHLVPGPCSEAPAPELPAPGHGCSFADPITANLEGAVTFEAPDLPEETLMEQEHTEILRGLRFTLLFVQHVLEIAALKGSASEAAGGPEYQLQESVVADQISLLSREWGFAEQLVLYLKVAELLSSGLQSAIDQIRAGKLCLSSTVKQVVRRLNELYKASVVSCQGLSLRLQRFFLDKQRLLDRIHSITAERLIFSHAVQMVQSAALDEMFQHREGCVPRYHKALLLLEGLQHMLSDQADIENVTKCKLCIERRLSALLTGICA

Take `O=C1CCc2cc(Nc3ncc(C(F)(F)F)c(C#Cc4ccccc4)n3)ccc2N1` [compound 64, 6-(4-(Phenylethynyl)-5-(trifluoromethyl)pyrimidin-2-ylamino)-3,4-dihydroquinolin-2(1H)-one]: the IC50 is over 2000 nM.

With `CNC(=O)c1ccccc1Oc1nc(Nc2cc(OC)ccc2OC)ncc1C(F)(F)F` [109a, 2-((2-((2,5-dimethoxyphenyl)amino)-5-(trifluoromethyl)pyrimidin-4-yl)oxy)-N-methylbenzamide], the IC50 is over 2000 nM.

As for `CC(=O)Nc1ccc(Nc2nc(Nc3ccc4c(c3)CCC(=O)N4)ncc2C(F)(F)F)cc1` [compound 132, N-(4-((2-((2-oxo-1,2,3,4-tetrahydroquinolin-6-yl)amino)-5-(trifluoromethyl)pyrimidin-4-yl)amino)phenyl)acetamide], the half-maximal inhibitory concentration (IC50) was under 200 nM.

On to `COc1cc(N2CCOCC2)ccc1Nc1ncc(C(F)(F)F)c(Nc2ccc3c(c2)CCC(=O)N3)n1` [123b, 6-((2-((2-methoxy-4-morpholinophenyl)amino)-5-(trifluoromethyl)pyrimidin-4-yl)amino)-3,4-dihydroquinolin-2(1H)-one], for which the IC50 was under 200 nM.

Consider `CNC(=O)c1ccccc1Nc1nc(Nc2cc(N3CCOCC3)cc(N3CCOCC3)c2)ncc1C(F)(F)F` [compound 90, 2-(2-(3,5-dimorpholinophenylamino)-5-(trifluoromethyl)pyrimidin-4-ylamino)-N-methylbenzamide], for which the half-maximal inhibitory concentration (IC50) was under 200 nM.

As for `COc1ccc(Nc2nc(Nc3ccc(N4CCOCC4)cc3OC)ncc2Cl)cn1` [compound 27, 5-Chloro-N^2-(2-methoxy-4-morpholinophenyl)-N^4-(6-methoxypyridin-3-yl)pyrimidine-2,4-diamine], the half-inhibitory concentration (IC50) was over 2000 nM.

As for `O=C1CCc2cc(Nc3ncc(C(F)(F)F)c(Nc4ccc5c(c4)CCC5)n3)ccc2N1` [compound 129, 6-((4-((2,3-dihydro-1H-inden-5-yl)amino)-5-(trifluoromethyl)pyrimidin-2-yl)amino)-3,4-dihydroquinolin-2(1H)-one], the IC50 was under 200 nM.

Consider `CS(=O)(=O)c1cccc(CNc2nc(Nc3ccc4c(c3)CCC(=O)N4)ncc2C(F)(F)F)c1` [compound 32, 6-(4-(3-(Methylsulfonyl)benzylamino)-5-(trifluoromethyl)pyrimidin-2-ylamino)-3,4-dihydroquinolin-2(1H)-one], for which the concentration for half-maximal inhibition (IC50) is 200 to 2000 nM.

In the case of `FC(F)(F)c1cnc(Nc2cnc3[nH]ccc3c2)nc1Nc1ccc2c(c1)OCO2` [compound 177, N4-(benzo[d][1,3]dioxol-5-yl)-N2-(1H-pyrrolo[2,3-b]pyridin-5-yl)-5-(trifluoromethyl)pyrimidine-2,4-diamine], the half-inhibitory concentration (IC50) is under 200 nM.

For the molecule `O=C1CCc2cc(Nc3ncc(C(F)(F)F)c(Nc4ccccc4N4CCOCC4)n3)ccc2N1` [118a, 6-((4-((2-morpholinophenyl)amino)-5-(trifluoromethyl)pyrimidin-2-yl)amino)-3,4-dihydroquinolin-2(1H)-one], the IC50 was under 200 nM.

`CNC(=O)c1ccccc1Oc1nc(Nc2ccccc2OC)ncc1C(F)(F)F` [compound 103, 2-((2-((2-methoxyphenyl)amino)-5-(trifluoromethyl)pyrimidin-4-yl)oxy)-N-methylbenzamide]: the IC50 is over 2000 nM.

As for `O=C1CCc2cc(Nc3ncc(C(F)(F)F)c(Nc4ccc5c(c4)OC(F)(F)O5)n3)ccc2N1` [178a, 6-((4-((2,2-difluorobenzo[d][1,3]dioxol-5-yl)amino)-5-(trifluoromethyl)pyrimidin-2-yl)amino)-3,4-dihydroquinolin-2(1H)-one], the IC50 is under 200 nM.

As for `COc1ccc(Nc2nc(Nc3ccc4c(c3)CCC(=O)N4)ncc2Br)cn1` [compound 156, 6-((5-bromo-4-((6-methoxypyridin-3-yl)amino)pyrimidin-2-yl)amino)-3,4-dihydroquinolin-2(1H)-one], the IC50 was under 200 nM.

On to `CCCCOc1nc(Nc2cc(OC)c(OC)c(OC)c2)ncc1Br` [compound 173, 5-bromo-4-butoxy-N-(3,4,5-trimethoxyphenyl)pyrimidin-2-amine], for which the IC50 is under 200 nM.

Regarding `O=C1CCc2cc(Nc3ncc(C(F)(F)F)c(OC4CCC4)n3)ccc2N1` [compound 175, 6-((4-cyclobutoxy-5-(trifluoromethyl)pyrimidin-2-yl)amino)-3,4-dihydroquinolin-2(1H)-one], the half-maximal inhibitory concentration (IC50) was under 200 nM.

On to `FC(F)(F)c1cnc(Nc2ccc3c(c2)OCO3)nc1N1CCCC1` [164b, N-(benzo[d][1,3]dioxol-5-yl)-4-(pyrrolidin-1-yl)-5-(trifluoromethyl)pyrimidin-2-amine], for which the concentration for half-maximal inhibition (IC50) was in the range of 200 to 2000 nM.

As to `O=C1CCc2cc(Nc3nc(NC4Cc5ccccc5C4)ncc3C(F)(F)F)ccc2N1` [130b, 6-((2-((2,3-dihydro-1H-inden-2-yl)amino)-5-(trifluoromethyl)pyrimidin-4-yl)amino)-3,4-dihydroquinolin-2(1H)-one], the IC50 was over 2000 nM.

For the molecule `CS(=O)(=O)c1cccc(CNc2nc(Nc3ccc4c(c3)CCC(=O)N4)ncc2F)c1` [compound 56, 6-((5-Fluoro-4-((3-(methylsulfonyl)benzyl)amino)pyrimidin-2-yl)amino)-3,4-dihydroquinolin-2(1H)-one], the IC50 was over 2000 nM.

For the molecule `CNC(=O)c1ccccc1Nc1nc(Nc2ccccc2C)ncc1Cl` [compound 53, 2-(5-Chloro-2-(o-tolylamino)pyrimidin-4-ylamino)-N-methylbenzamide], the concentration for half-maximal inhibition (IC50) was over 2000 nM.

For the molecule `FC(F)(F)c1cnc(Nc2cccc3ccccc23)nc1Nc1cccc2ccccc12` [126b, N^2,N^4-di(naphthalen-1-yl)-5-(trifluoromethyl) pyrimidine-2,4-diamine], the IC50 lay within 200 to 2000 nM.

In the case of `O=C1CCc2cc(Nc3ncc(C(F)(F)F)c(NCc4ccccc4)n3)ccc2N1` [compound 43, 6-(4-(Benzylamino)-5-(trifluoromethyl)pyrimidin-2-ylamino)-3,4-dihydroquinolin-2(1H)-one], the half-maximal inhibitory concentration (IC50) is under 200 nM.

`CNC(=O)c1ccccc1Oc1nc(Nc2cccc(OC)c2OC)ncc1C(F)(F)F` [115a, 2-((2-((2,3-dimethoxyphenyl)amino)-5-(trifluoromethyl)pyrimidin-4-yl)oxy)-N-methylbenzamide]: the IC50 was over 2000 nM.

Consider `COc1ccc(C)c(Nc2ncc(Cl)c(NCc3cccc(S(C)(=O)=O)c3)n2)c1` [compound 41, 5-Chloro-N^2-(5-methoxy-2-methylphenyl)-N^4-(3-(methylsulfonyl)benzyl)pyrimidine-2,4-diamine], for which the IC50 is over 2000 nM.

As for `O=C1CCc2cc(Nc3nc(NC4CCCC4)ncc3C(F)(F)F)ccc2N1` [160b, 6-((2-(cyclopentylamino)-5-(trifluoromethyl)pyrimidin-4-yl)amino)-3,4-dihydroquinolin-2(1H)-one], the IC50 lay in the range of 200 to 2000 nM.

On to `FC(F)(F)c1cnc(Nc2ccc3c(c2)OCO3)nc1N1CCC1` [166b, 4-(azetidin-1-yl)-N-(benzo[d][1,3]dioxol-5-yl)-5-(trifluoromethyl)pyrimidin-2-amine], for which the 50% inhibitory concentration (IC50) is under 200 nM.

`FC(F)(F)c1cnc(NC2CCC2)nc1Nc1cnc2[nH]ccc2c1` [161b, N^2-cyclobutyl-N^4-(1H-pyrrolo[2,3-b]pyridin-5-yl)-5-(trifluoromethyl)pyrimidine-2,4-diamine]: the half-inhibitory concentration (IC50) was under 200 nM.

As for `CNC(=O)c1ccccc1Oc1nc(Nc2ccc(C)cc2Cl)ncc1C(F)(F)F` [compound 107, 2-((2-((2-chloro-4-methylphenyl)amino)-5-(trifluoromethyl)pyrimidin-4-yl)oxy)-N-methylbenzamide], the half-inhibitory concentration (IC50) is over 2000 nM.
